Tests used:
Type in all cases: biochemical
PC4 = target: T1, PC4 (Homo sapiens, UniProt Q6UW60); assay: Enzyme inhibition assay, fluorogenic substrate, PC4
T1 sequence (Q6UW60 114-755): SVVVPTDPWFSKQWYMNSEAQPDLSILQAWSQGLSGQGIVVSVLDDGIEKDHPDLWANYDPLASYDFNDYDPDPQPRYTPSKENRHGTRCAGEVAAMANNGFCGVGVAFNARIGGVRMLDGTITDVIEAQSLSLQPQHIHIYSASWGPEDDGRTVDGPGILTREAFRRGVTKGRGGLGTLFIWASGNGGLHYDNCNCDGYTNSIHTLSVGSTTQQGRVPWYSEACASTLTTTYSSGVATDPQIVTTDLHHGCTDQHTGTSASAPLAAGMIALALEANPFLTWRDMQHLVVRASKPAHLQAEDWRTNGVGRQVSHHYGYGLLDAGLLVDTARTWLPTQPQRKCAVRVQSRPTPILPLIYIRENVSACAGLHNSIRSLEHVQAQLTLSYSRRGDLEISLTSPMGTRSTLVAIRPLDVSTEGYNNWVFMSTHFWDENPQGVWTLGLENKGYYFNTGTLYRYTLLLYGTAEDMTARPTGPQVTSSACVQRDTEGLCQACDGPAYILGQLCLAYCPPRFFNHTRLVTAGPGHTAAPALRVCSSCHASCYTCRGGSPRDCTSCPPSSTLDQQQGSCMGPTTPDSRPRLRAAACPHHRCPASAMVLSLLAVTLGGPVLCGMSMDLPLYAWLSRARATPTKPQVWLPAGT
Method: (§1) Enzyme inhibition assays for furin (FIG. 5D) were performed in 100 mM Hepes pH 7.5, 1 mM CaCl2, 1 mM β-mercaptoethanol, 0.5 μg/μL BSA. Assays for PC2 (FIG. 5E) were performed in 20 mM Bis-Tris pH 5,7, 1 mM CaCl2, 0.1% Brij-30. Assays for PC1/3, PC4, PACE4, PC5/6 and PC7 (FIGS. 5F, G, A, B and C respectively) were performed in 20 mM Bis-Tis pH 6.5, 1 mM CaCl2. All assays were performed with the substrate pyroGlu-Arg-[…]-Lys-Arg-methyl-coumaryl-7-amide (SEQ ID NO: 33) (PyrRTKR-MCA (SEQ ID NO: 34)) (Bachem, CA) at 100 μM for furin, PC1/3, PC4, PACE4 and PC5/6, 200 μM for PC2 and 250 μM for PC7. Assays were carried out at 37° C. for 30-60 min and real-time fluorescence was measured with an excitation wavelength of 370 nm and an emission wavelength of 460 nm using a Gemini XS™ 96-well spectrofluorometer and SoftMaxPro4™ software (Molecular Devices, CA). Inhibitory peptides were added to the enzymes at decreasing concentrations from 100 μM to 50 nM and incubated 5 minutes prior to the addition of substrate.

PC5/6 = PC5/6 (Homo sapiens, UniProt Q92824); assay: Enzyme inhibition assay, fluorogenic substrate, PC5/6
Method: as §1

PC2 = target: T2, PC2 (Homo sapiens, UniProt P16519); assay: Enzyme inhibition assay, fluorogenic substrate, PC2
T2 sequence (P16519 110-638): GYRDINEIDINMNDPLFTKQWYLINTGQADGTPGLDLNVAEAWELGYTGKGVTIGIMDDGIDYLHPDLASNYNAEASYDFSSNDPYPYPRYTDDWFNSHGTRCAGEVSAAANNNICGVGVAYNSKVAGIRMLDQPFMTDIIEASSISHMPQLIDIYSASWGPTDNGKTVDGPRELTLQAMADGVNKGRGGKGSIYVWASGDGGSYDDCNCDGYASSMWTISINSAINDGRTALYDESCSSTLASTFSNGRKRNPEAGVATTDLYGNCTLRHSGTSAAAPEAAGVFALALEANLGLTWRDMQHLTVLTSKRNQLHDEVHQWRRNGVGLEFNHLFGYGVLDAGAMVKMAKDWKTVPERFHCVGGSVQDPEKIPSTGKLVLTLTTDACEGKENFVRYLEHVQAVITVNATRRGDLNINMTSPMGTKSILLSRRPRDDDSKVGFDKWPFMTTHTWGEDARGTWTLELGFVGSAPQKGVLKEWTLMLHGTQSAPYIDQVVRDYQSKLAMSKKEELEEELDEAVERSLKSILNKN
Method: as §1

furin = furin (Homo sapiens, UniProt P09958); assay: Enzyme inhibition assay, fluorogenic substrate, furin
Method: as §1

PC5/6, sequence (Q92824 115-1860): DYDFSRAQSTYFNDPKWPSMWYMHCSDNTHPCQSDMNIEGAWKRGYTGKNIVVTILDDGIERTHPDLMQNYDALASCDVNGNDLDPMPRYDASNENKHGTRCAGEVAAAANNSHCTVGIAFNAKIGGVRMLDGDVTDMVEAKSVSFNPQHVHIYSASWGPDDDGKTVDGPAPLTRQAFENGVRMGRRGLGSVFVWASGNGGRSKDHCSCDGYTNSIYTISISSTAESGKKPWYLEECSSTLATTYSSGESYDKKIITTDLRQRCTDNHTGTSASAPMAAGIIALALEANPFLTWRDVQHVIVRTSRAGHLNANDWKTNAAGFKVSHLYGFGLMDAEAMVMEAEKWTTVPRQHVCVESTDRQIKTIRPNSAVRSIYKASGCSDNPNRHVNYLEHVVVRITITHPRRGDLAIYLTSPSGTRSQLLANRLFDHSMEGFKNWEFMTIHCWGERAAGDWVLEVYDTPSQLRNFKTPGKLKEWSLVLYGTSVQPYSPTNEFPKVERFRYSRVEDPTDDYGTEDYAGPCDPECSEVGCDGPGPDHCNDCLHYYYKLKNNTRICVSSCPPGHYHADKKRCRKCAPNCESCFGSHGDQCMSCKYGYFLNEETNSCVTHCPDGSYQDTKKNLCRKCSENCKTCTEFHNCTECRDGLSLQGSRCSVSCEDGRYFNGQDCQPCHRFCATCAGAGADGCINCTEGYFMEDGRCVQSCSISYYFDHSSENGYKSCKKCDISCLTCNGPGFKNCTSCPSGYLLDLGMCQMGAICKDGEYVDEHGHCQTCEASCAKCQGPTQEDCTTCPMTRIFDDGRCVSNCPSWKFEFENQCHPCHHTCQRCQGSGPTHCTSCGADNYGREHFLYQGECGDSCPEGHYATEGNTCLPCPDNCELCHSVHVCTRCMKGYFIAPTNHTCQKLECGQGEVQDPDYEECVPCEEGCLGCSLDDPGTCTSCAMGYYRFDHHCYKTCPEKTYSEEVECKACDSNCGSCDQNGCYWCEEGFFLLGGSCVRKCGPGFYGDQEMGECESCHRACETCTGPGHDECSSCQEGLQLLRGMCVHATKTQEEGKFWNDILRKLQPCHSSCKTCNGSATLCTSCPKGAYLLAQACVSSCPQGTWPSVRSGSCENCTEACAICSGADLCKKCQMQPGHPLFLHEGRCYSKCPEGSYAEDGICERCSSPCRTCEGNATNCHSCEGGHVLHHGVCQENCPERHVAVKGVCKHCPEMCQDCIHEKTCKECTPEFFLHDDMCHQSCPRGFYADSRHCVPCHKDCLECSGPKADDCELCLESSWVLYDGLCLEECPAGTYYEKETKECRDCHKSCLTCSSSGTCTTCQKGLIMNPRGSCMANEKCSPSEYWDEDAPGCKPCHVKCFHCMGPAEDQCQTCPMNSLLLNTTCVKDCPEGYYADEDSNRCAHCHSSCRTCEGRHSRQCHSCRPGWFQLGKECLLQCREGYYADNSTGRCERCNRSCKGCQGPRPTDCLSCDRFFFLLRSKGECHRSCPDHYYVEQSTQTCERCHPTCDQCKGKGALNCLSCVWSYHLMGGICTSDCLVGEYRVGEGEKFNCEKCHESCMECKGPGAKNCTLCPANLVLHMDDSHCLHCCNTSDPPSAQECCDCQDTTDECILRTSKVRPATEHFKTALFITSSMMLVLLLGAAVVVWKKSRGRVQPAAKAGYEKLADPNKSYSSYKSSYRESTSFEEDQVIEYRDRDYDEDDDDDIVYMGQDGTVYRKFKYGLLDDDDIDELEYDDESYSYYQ
furin, sequence (P09958 108-794, species assumed): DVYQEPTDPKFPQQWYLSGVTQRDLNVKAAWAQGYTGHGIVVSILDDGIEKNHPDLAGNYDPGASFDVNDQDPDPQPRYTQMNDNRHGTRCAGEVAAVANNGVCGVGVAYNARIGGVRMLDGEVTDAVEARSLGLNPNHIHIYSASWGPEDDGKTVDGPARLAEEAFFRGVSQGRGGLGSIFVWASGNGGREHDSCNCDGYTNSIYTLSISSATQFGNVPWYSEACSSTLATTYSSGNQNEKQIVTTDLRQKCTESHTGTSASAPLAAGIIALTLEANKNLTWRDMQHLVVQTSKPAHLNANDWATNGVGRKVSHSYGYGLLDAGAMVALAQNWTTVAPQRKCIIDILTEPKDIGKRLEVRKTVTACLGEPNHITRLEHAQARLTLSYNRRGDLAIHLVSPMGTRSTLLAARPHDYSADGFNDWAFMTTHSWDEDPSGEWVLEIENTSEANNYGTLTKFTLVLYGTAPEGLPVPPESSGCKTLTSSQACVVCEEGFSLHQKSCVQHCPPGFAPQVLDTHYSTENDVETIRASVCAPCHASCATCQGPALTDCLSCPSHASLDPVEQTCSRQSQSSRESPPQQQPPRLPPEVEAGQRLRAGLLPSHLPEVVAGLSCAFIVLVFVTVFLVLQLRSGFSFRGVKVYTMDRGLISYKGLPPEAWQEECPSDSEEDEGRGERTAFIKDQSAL

RVKR [RVKR—NH2, RVKR-NH2]
poor micromolar inhibitor: inhibition potency on PC4, in words (PC4) | inhibition potency on PC5/6, in words (PC5/6) | inhibition potency on PC2, in words (PC2) | inhibition potency on furin, in words (furin)

Source: patent US8658591B2, “Multi-LEU peptides and analogues thereof as selective PACE4 inhibitors and effective antiproliferative agents” (priority 2008, dated 2014)
